# Literature values, collected in patent US9668974B2, “Depot formulations of a local anesthetic and methods for preparation thereof” (PAINREFORM LTD., priority 2012, dated 2017).
# Conditions: in vivo
compound,measurement,value
CCCN1CCCC[C@H]1C(=O)Nc1c(C)cccc1C [ropivacaine],Toxic threshold (plasma ropivacaine),0.6 µg/mL
